Where a name gives a salt, the structure may show the parent alone.
What was measured:
[1] = tested on: H1N1 A/Netherlands/602/2009 (N09); assay: microbe, parasite or virus in culture; type: cell-based, Influenza A virus; settings: for Inhibition (%): 10 µM; for inhibition at 10 µM: Influenza A virus, H1N1, A549, 48 h
[2] = tested on: H1N1 A/Netherlands/602/2009 (N09); settings: 10 µM
[3] = tested on: H1N1 A/Netherlands/602/2009 (N09); assay: microbe, parasite or virus in culture; type: cell-based; settings: Influenza A virus, H1N1, MDCK, read-out: EC50 (95% CI)
[4] = tested on: influenza virus; settings: cited from earlier work
[5] = in vitro; settings: dog
[6] = tested on: H1N1 A/Netherlands/602/2009 (N09); assay: microbe, parasite or virus in culture; settings: Influenza A virus, H1N1, A549, 48 h
[7] = tested on: clinical influenza A strain (H1N1); type: cell-based, Influenza A virus
[8] = tested on: H1N1 A/Netherlands/602/2009 (N09); type: cell-based, Influenza A virus
[9] = tested on: H1N1 A/Netherlands/602/2009 (N09); type: cell-based, Influenza A virus; remark: listed apart in the source
[10] = tested on: H1N1 A/Netherlands/602/2009 (N09); type: cell-based, Influenza A virus; remark: listed apart in the source
[11] = tested on: SARS-CoV-2 B.1.1.7
[12] = tested on: MucilAir tissues

Row | SMILES | EC50 [3] | inhibition at 10 µM [1] | viability at 10 µM [6] | CC50 [5] | other results
1 | CCN(CCCc1ccccc1)CCCc1ccccc1.O=C(O)CC(O)(CC(=O)O)C(=O)O [Alverine citrate salt] | – | – | – | – | Inhibition (%) [1]: 99%; Viability (%) [2]: 145%
2 | C=C[C@@](C)(/C=C/c1ccc(O)cc1)CCC=C(C)C [Bakuchiol] | 0.94 µM | – | – | – | Reported inhibition of influenza virus [4]: inhibit influenza virus; CC50 at 24 h [5]: 46.2 µM
3 | CCN(CC)CCNC(C(=O)OCCC(C)C)c1ccccc1.Cl.Cl (stereo not drawn) [Camylofine chlorhydrate] | – | – | – | – | Inhibition (%) [1]: 97%; Viability (%) [2]: 97%
4 | COc1ccc2c(c1)[C@]13CCCC[C@@H]1[C@H](C2)N(C)CC3 [Dextromethorphan hydrobromide monohydrate] | – | 100% | 103% | – | –
5 | C/C=C(/C(=C/C)c1ccc(O)cc1)c1ccc(O)cc1 [Dienestrol] | 3.13 µM | – | – | 32.6 µM | –
6 | CC/C(=C(/CC)c1ccc(O)cc1)c1ccc(O)cc1 [Diethylstilbestrol] | – | 114% | 72% | 9.81 µM | Reduction of viral load [7]: more than one log; Inhibition, pre-treatment [8]: good inhibition; Potency when added post-infection [8]: potency of the compound was lost; Attachment of the virus [9]: not inhibited; Viral RNA replication [10]: inhibited; Inhibition of SARS-CoV-2 [11]: did not inhibit; Toxicity in Mucilair tissues [12]: absence of toxicity
7 | CC[C@H](c1ccc(O)cc1)[C@@H](CC)c1ccc(O)cc1 [Hexestrol] | 0.14 µM | – | – | 46.9 µM | –
8 | C[C@H](Cc1ccc(O)c(O)c1)[C@@H](C)Cc1ccc(O)c(O)c1 [Masoprocol] | > 10 µM | – | – | 84.9 µM | –
9 | OC(CCN1CCCC1)(c1ccccc1)C1CCCCC1 (stereo not drawn) [Procyclidine hydrochloride] | – | 97% | 91% | – | –
10 | Oc1ccc(/C=C/c2cc(O)cc(O)c2)cc1 [Resveratrol] | > 10 µM | – | – | 52 µM | Reported inhibition of influenza [4]: inhibit influenza

Source: PMC10607366 (International Journal of Molecular Sciences, 2023)
